# Data published in patent publication US7786257B2, “Signal-1/signal-2 bifunctional peptide inhibitors” (priority 2000, dated 2010).
# Entries after “also recorded” stand apart in the source; their conditions may differ. Where no end group is shown, it is not given here. [ ]: non-standard residue; d: D form. Ahx = NCCCCCC(=O)O
# Assays:
# [1] = system: MHC-II and ICAM-1 molecules on the APC surface; assay: Co-capping of ICAM-1 with MHC-II on APC from i.v. treated NOD mice (fluorescence microscopy); assay type: cell-based, mouse; conditions: T-depleted spleenocytes from NOD mice 16 hours after i.v. injection of 40 nanomoles; bio-10-3.62/streptavidin
# Method: (§1) Specifically, it was verified that the peptide binds to MHC molecules on live APC. Briefly, spleen cell density-gradient fractions (from mice), or PBL, or APC lines (from humans) were incubated in round bottom 96-well plates with increasing concentrations of individual biotinylated peptides at 37° C., 5% CO2 for 16 hours. Following binding of the BPI to the APC, Avidin-FITC was incubated with the cells on ice for 30 minutes, followed by biotinylated anti-Avidin for 1 hour, then again with Avidin-FITC. For BPI titrations, increasing concentrations (0.1-100 μM) of the biotinylated derivatives in sterile 0.5% BSA-PBS were incubated with the APC for 16 hours as above. […] Three-color analyses used Cy-Chrome or PE-conjugated antibodies to known surface markers of APC that were commercially available. Avidin-FITC and biotinylated anti-Avidin detection of the bound peptide was as previously described in Murray et al., 24 Eur. J. Immunol. […]
# Further support for simultaneous binding of the BPI to MHC-II and ICAM-1 molecules has been observed in co-capping experiments using biotinylated mAb 10-3.62 and streptavidin to cap MHC-II in the presence or absence of the BPI. […] The cells are plated and observed for evidence that a given BPI links ICAM-1 into the MHC-II cap, i.e., by standard fluorescence microscopy and image analysis.
# [2] = system: live APC (spleenocytes) from NOD (I-A^g7), BALB/c, A.SW, A.BY mice; assay: Flow cytometry of biotinylated peptide binding to live APC (spleenocytes) of inbred mouse strains; conditions: for percentage of high-density binding cells: biotinylated peptide 50 μM, overnight; for preferential binding to NOD APC compared with other strains (BALB/c, A.SW, A.BY): biotinylated peptide, live spleenocytes, flow cytometry
# Method: Specifically, it was verified that the peptide binds to MHC molecules on live APC. Briefly, spleen cell density-gradient fractions (from mice), or PBL, or APC lines (from humans) were incubated in round bottom 96-well plates with increasing concentrations of individual biotinylated peptides at 37° C., 5% CO2 for 16 hours. Following binding of the BPI to the APC, Avidin-FITC was incubated with the cells on ice for 30 minutes, followed by biotinylated anti-Avidin for 1 hour, then again with Avidin-FITC. For BPI titrations, increasing concentrations (0.1-100 μM) of the biotinylated derivatives in sterile 0.5% BSA-PBS were incubated with the APC for 16 hours as above. […] Three-color analyses used Cy-Chrome or PE-conjugated antibodies to known surface markers of APC that were commercially available. Avidin-FITC and biotinylated anti-Avidin detection of the bound peptide was as previously described in Murray et al., 24 Eur. J. Immunol. 2337-2344 (1994); Murray; 19 Immunology Today 157-163; and Schountz et al., 157 The Journal of Immunology 3893-3901 (1996). Slight modifications of this method were used to test peptide inhibition (i.e., peptide affinity) and co-capping to the MHC and ICAM molecules directly on the live APC surface. […] Unlabeled peptide was used in a competition assay to derive the relative affinity of the BPI for the APC and the ability of the BPI to crosslink the MHC and ICAM molecules on the APC was examined by cocapping ICAM with an anti-MHC mAb. Here, cells were incubated with the BPI. Next, an anti-MHC mAb was added. After 30 minutes at 37° C., the cells were transferred to ice and stained with PE-labeled anti-ICAM (FIG. 7).
# To obtain biotinylated BPI, the synthesized EGAD BPI was biotinylated with NHS-Biotin as described in Murray et al., 24 Eur. J. Immunol. 2337-2344 (1994). Spleen cell density-gradient fractions from normal (unimmunized) NOD, BALB/c and other MHC congenic strains were incubated in round bottom 96-well plates with increasing concentrations of individual biotinylated peptides at 37° C., 5% CO2 for 16 hours. Following binding of the BPI to the APC, Avidin-FITC was incubated with the cells on ice for 30 minutes, followed bybiotinylated anti-Avidin for 1 hour, then again with Avidin-FITC. For BPI titrations, increasing concentrations (0.1-100 μM) of the biotinylated derivatives in sterile 0.5% BSA-PBS were incubated with the APC for 16 hours as above. Three-color analyses used Cy-Chrome or PE-conjugated anti-B220 (mAb RA3-6B2 (CD45R B-cell marker), anti-MHC class II (KH74 or 10-3.62 mAb), or anti-ICAM-1 (3E2 mAb); (all purchased from PharMingen, San Diego, Calif.). Bound peptide was detected with avidin-FITC/biotinylated anti-avidin/avidin-FITC on live cells gated by forward/side scatter analysis. Controls contained all detecting reagents in absence of the biotinylated peptide; 20,000 events were analyzed for each histogram with a FACScan (Becton-Dickinson) flow cytometer.
# To verify antigenic peptide binding to live APC, initial EGAD-BPI were screened for selective binding to NOD (I-A^g7) APC and assayed for simultaneous binding using monoclonal antibodies against either MHC-II or ICAM-1 by flow cytometry methods using live APC (Murray et al., 24 Eur. J. Immunol. 2337-2344 (1994); Murray; 19 Immunology Today 157-163; and Schountz et al., 157 The Journal of Immunology 3893-3901 (1996)). In this assay, increasing concentrations of the biotinylated-BPI, -CD11a(237-247) or -GAD65(208-217) peptide were incubated overnight with spleenocytes from each inbred strain. Bound peptide was detected with amplification of avidin-FITC fluorescence by the use of a biotinylated anti-avidin reagent, followed by a second round of avidin-FITC binding. Biotinylated peptide was incubated with 10^6 viable cells at a peptide concentrations of 50 μM. Bound peptide was detected with avidin-FITC/biotinylated anti-avidin-FITC. […]
# [3] = system: MHC-II and ICAM-1 on NOD spleenocytes; assay: Inhibition of biotinylated BPI binding to NOD spleenocytes by monoclonal antibodies to MHC-II or ICAM-1; parameters: species or system mouse; conditions: mAb 10-3.62 or 3E2 at 5 μg/ml
# Method: as §1, with “Immunol. 2337-2344 (1994); Murray; 19 Immunology Today 157-163; and Schountz et al., 157 The Journal of Immunology 3893-3901 (1996).” for “Immunol.”
# However, either purified 10-3.62 (anti-MHC-II) or 3E2 (anti-ICAM-1) were included in the overnight incubation of the spleen cells with the biotinylated BPI. […] Analyses were gated on forward/side scatter dotplots for live lymphocytes and 20,000 events were analyzed for each histogram.
# NOD.Scid mice = assay: NOD.Scid adoptive transfer model of diabetes progression (blood glucose); assay type: in vivo, mouse; conditions: 7 weeks post adoptive transfer; CD4+ T-cells from treated mice co-transferred with CD25-depleted inducer cells
# Method: In another example which tested the diabetes BPI in vivo, 15 million disease-linked lymphocytes (i.e., patient T-cells, or T-cell populations linked to the disease process) were injected with or without T-cells that received the BPI compound (in vivo or in vitro) and were expanded for 24 hours in recombinant IL-2. […] For blocking spontaneous diabetes, five groups of ten female NOD mice (12 weeks of age) were used and monitored for nondiabetic blood glucose levels with a standard glucometer (AccuChek-complete, Roche Diagnostic). Each mouse was labeled and individually monitored for blood glucose levels weekly for the course of the experiment. The five groups received either (a) intravenous (i.v.) injection of the BPI (100 μg in 100 μl endotoxin-free saline/injection) at 8 weeks of age, (b) same dose GAD65 (208-217) epitope alone, (c) same dose CD11a (237-247) peptide alone, or (d) saline alone.
# NOD spleen cells from 8 week (non-diabetic) females were used to enrich a CD25-/CTLA4-depleted population by treatment with purified monoclonal antibody (mAb 7D4, PharMingen) followed by low-tox rabbit complement (Cedarlane) (80% depletion of CTLA4+ cells by flow analysis with PE-labeled UC10-4F10-11 mAb; not shown). […] In vitro clonal expansion was with either recombinant IL-2 (R&D systems), or ConA, as described for the ELISPOT experiments. […]
substance,measurement,setting,value
GAD65(208-217)-[Ac-G-Ac-G-Ac]-CD11a (237-247) (EIAPVFVLLE[Ahx]G[Ahx]G[Ahx]ITDGEATDSG) [EGAD-BPI],co-capping of ICAM-1 with MHC-II,[1],exhibited co-capping of ICAM-1 with MUC-II; also recorded: ICAM-1 was co-capped with MHC-II
same,percentage of high-density binding cells,[2]; A.BY spleenocytes,6%
same,percentage of high-density binding cells,[2]; NOD spleenocytes,30%
same,"preferential binding to NOD APC compared with other strains (BALB/c, A.SW, A.BY)",[2],higher density
same,"preferential binding to NOD APC compared with other strains (BALB/c, A.SW, A.BY)",[2]; listed as GAD 65 BPI,binds preferentially to NOD APC
same,BPI binding in presence of monoclonal antibody to MHC-II or ICAM-1,[3],effectively block binding
same,BPI binding in presence of monoclonal antibody to MHC-II or ICAM-1,[3]; listed as BPI,blocked BPI binding
same,mice showing hyperglycemia and progression to diabetes,NOD.Scid mice,40%
